≈ marks a conversion by molar mass, not a printed value.
How the values were obtained:
Test in all cases: Anti-microbial activity test in vitro (agar dilution MIC)
CRSA C1062 = assay type: cell-based, Staphylococcus aureus; details: CRSA C1062; Agar Dilution method, Mueller Hinton Agar, 18 hours at 37° C.
Experimental: (§1) Anti-microbial activity test in vitro
(§2) Strains were cultivated for 18 hours at 37° C. in Agar Dilution method using Mueller Hinton Agar, and then plane plates inoculated with the strains by diluting them two times gradually were aligned in a row. Minimum inhibition concentration (MIC, μg/ml) for the representative compounds of the present invention, Linezolid (LZD) and vancomycin (VAN) were decided through visual observation, and the results are shown in the following tables 2 and 3.

CRSA C6043 = assay type: cell-based, Staphylococcus aureus; details: CRSA C6043; Agar Dilution method, Mueller Hinton Agar, 18 hours at 37° C.
Experimental: as §1, §2

MRSA C2207 = assay type: cell-based, Staphylococcus aureus; details: MRSA C2207; Agar Dilution method, Mueller Hinton Agar, 18 hours at 37° C.
Experimental: as §1, §2

MRSA C5100 = assay type: cell-based, Staphylococcus aureus; details: MRSA C5100; Agar Dilution method, Mueller Hinton Agar, 18 hours at 37° C.
Experimental: as §1, §2

MRSA C6068 = assay type: cell-based, Staphylococcus aureus; details: MRSA C6068; Agar Dilution method, Mueller Hinton Agar, 18 hours at 37° C.
Experimental: as §1, §2

MSSA C2214 = assay type: cell-based, Staphylococcus aureus; details: MSSA C2214; Agar Dilution method, Mueller Hinton Agar, 18 hours at 37° C.
Experimental: as §1, §2

MSSA C7142 = assay type: cell-based, Staphylococcus aureus; details: MSSA C7142; Agar Dilution method, Mueller Hinton Agar, 18 hours at 37° C.
Experimental: as §1, §2

E. faecalis ATCC29212 = assay type: cell-based; details: E. faecalis ATCC29212; Agar Dilution method, Mueller Hinton Agar, 18 hours at 37° C.
Experimental: as §1, §2

E. faecalis C6288 = assay type: cell-based; details: E. faecalis C6288; Agar Dilution method, Mueller Hinton Agar, 18 hours at 37° C.
Experimental: as §1, §2

E. faecalis C6291 = assay type: cell-based; details: E. faecalis C6291; Agar Dilution method, Mueller Hinton Agar, 18 hours at 37° C.
Experimental: as §1, §2

E. faecium C2252 = assay type: cell-based; details: E. faecium C2252; Agar Dilution method, Mueller Hinton Agar, 18 hours at 37° C.
Experimental: as §1, §2

E. faecium C6301 = assay type: cell-based; details: E. faecium C6301; Agar Dilution method, Mueller Hinton Agar, 18 hours at 37° C.
Experimental: as §1, §2

S. aureus ATCC 29213 = assay type: cell-based; details: Agar Dilution method, Mueller Hinton Agar, 18 hours at 37° C.
Experimental: as §1, §2

S. epidermidis ATCC12228 = assay type: cell-based; details: S. epidermidis ATCC12228; Agar Dilution method, Mueller Hinton Agar, 18 hours at 37° C.
Experimental: as §1, §2

S. epidermidis C2230 = assay type: cell-based; details: S. epidermidis C2230; Agar Dilution method, Mueller Hinton Agar, 18 hours at 37° C.
Experimental: as §1, §2

S. epidermidis C2235 = assay type: cell-based; details: S. epidermidis C2235; Agar Dilution method, Mueller Hinton Agar, 18 hours at 37° C.
Experimental: as §1, §2

S. pyogenes ATCC8668 = assay type: cell-based; details: S. pyogenes ATCC8668; Agar Dilution method, Mueller Hinton Agar, 18 hours at 37° C.
Experimental: as §1, §2

S. pyogenes C6003 = assay type: cell-based; details: S. pyogenes C6003; Agar Dilution method, Mueller Hinton Agar, 18 hours at 37° C.
Experimental: as §1, §2

S. pyogenes C6012 = assay type: cell-based; details: S. pyogenes C6012; Agar Dilution method, Mueller Hinton Agar, 18 hours at 37° C.
Experimental: as §1, §2

VRE C6487 = assay type: cell-based, Enterococcus faecium; details: VRE C6487; Agar Dilution method, Mueller Hinton Agar, 18 hours at 37° C.
Experimental: as §1, §2

VRE C6488 = assay type: cell-based, Enterococcus faecium; details: VRE C6488; Agar Dilution method, Mueller Hinton Agar, 18 hours at 37° C.
Experimental: as §1, §2

| SMILES | Minimum inhibition concentration (MIC) (CRSA C1062) [µg/mL] | Minimum inhibition concentration (MIC) (CRSA C6043) [µg/mL] | Minimum inhibition concentration (MIC) (MRSA C2207) [µg/mL] | Minimum inhibition concentration (MIC) (MRSA C5100) [µg/mL] | Minimum inhibition concentration (MIC) (MRSA C6068) [µg/mL] | Minimum inhibition concentration (MIC) (MSSA C2214) [µg/mL] | Minimum inhibition concentration (MIC) (MSSA C7142) [µg/mL] | Minimum inhibition concentration (MIC) (E. faecalis ATCC29212) [µg/mL] | Minimum inhibition concentration (MIC) (E. faecalis C6288) [µg/mL] | Minimum inhibition concentration (MIC) (E. faecalis C6291) [µg/mL] | Minimum inhibition concentration (MIC) (E. faecium C2252) [µg/mL] | Minimum inhibition concentration (MIC) (E. faecium C6301) [µg/mL] | Minimum inhibition concentration (MIC) (S. aureus ATCC 29213) [µg/mL] | Minimum inhibition concentration (MIC) (S. epidermidis ATCC12228) [µg/mL] | Minimum inhibition concentration (MIC) (S. epidermidis C2230) [µg/mL] | Minimum inhibition concentration (MIC) (S. epidermidis C2235) [µg/mL] | Minimum inhibition concentration (MIC) (S. pyogenes ATCC8668) [µg/mL] | Minimum inhibition concentration (MIC) (S. pyogenes C6003) [µg/mL] | Minimum inhibition concentration (MIC) (S. pyogenes C6012) [µg/mL] | Minimum inhibition concentration (MIC) (VRE C6487) [µg/mL] | other results |
| --- | --- | --- | --- | --- | --- | --- | --- | --- | --- | --- | --- | --- | --- | --- | --- | --- | --- | --- | --- | --- | --- |
| CC(=O)NC[C@H]1CN(c2ccc(N3CCC(=CC#N)CC3)c(F)c2)C(=O)O1 [Compound 8, N-[[(5S)-3-[3-fluoro-4-(4-cyanomethylidenepiperidinyl)-phenyl]-2-oxo-5-oxazolidinyl]methyl]acetamide] | 2 (≈ 5.37 µM) | 2 (≈ 5.37 µM) | 2 (≈ 5.37 µM) | 2 (≈ 5.37 µM) | 1 (≈ 2.69 µM) | 4 (≈ 10.7 µM) | 2 (≈ 5.37 µM) | 2 (≈ 5.37 µM) | 2 (≈ 5.37 µM) | 2 (≈ 5.37 µM) | 2 (≈ 5.37 µM) | 2 (≈ 5.37 µM) | 2 (≈ 5.37 µM) | 0.5 (≈ 1.34 µM) | 2 (≈ 5.37 µM) | 1 (≈ 2.69 µM) | 0.5 (≈ 1.34 µM) | 2 (≈ 5.37 µM) | 0.5 (≈ 1.34 µM) | 4 (≈ 10.7 µM) | Minimum inhibition concentration (MIC) (VRE C6488): 4 µg/mL (≈ 10.7 µM) |
| CC(=O)NC[C@H]1CN(c2ccc(N3CCC(=Cc4cc(-c5cccs5)no4)CC3)c(F)c2)C(=O)O1 [Compound 9, N-[[(5S)-3-[3-fluoro-4-((4-(3-thiophen-2-yl-5-isoxazolyl)-methylidene)piperidinyl)phenyl]-2-oxo-5-oxazolidinyl]methyl]acetamide] | 32 (≈ 64.4 µM) | 16 (≈ 32.2 µM) | 32 (≈ 64.4 µM) | 16 (≈ 32.2 µM) | 16 (≈ 32.2 µM) | 16 (≈ 32.2 µM) | 32 (≈ 64.4 µM) | 16 (≈ 32.2 µM) | 16 (≈ 32.2 µM) | 16 (≈ 32.2 µM) | 16 (≈ 32.2 µM) | 16 (≈ 32.2 µM) | 32 (≈ 64.4 µM) | 4 (≈ 8.06 µM) | 8 (≈ 16.1 µM) | 8 (≈ 16.1 µM) | 2 (≈ 4.03 µM) | 16 (≈ 32.2 µM) | 4 (≈ 8.06 µM) | 16 (≈ 32.2 µM) | Minimum inhibition concentration (MIC) (VRE C6488): 16 µg/mL (≈ 32.2 µM) |
| CC(=O)NC[C@H]1CN(c2ccc(N3CCC(=Cc4cc(-c5csnc5C)no4)CC3)c(F)c2)C(=O)O1 [Compound 10, N-[[(5S)-3-[3-fluoro-4-((4-(3-(3-methyl-isothiazol-4-yl)-iso-xazolyl)methylidene)piperidinyl)phenyl]-2-oxo-5-oxazolidinyl]methyl]acetamide] | 16 (≈ 31.3 µM) | 16 (≈ 31.3 µM) | 16 (≈ 31.3 µM) | 8 (≈ 15.6 µM) | 8 (≈ 15.6 µM) | 16 (≈ 31.3 µM) | 8 (≈ 15.6 µM) | 16 (≈ 31.3 µM) | 16 (≈ 31.3 µM) | 8 (≈ 15.6 µM) | 8 (≈ 15.6 µM) | 8 (≈ 15.6 µM) | 16 (≈ 31.3 µM) | 2 (≈ 3.91 µM) | 4 (≈ 7.82 µM) | 4 (≈ 7.82 µM) | 2 (≈ 3.91 µM) | 8 (≈ 15.6 µM) | 2 (≈ 3.91 µM) | 4 (≈ 7.82 µM) | Minimum inhibition concentration (MIC) (VRE C6488): 8 µg/mL (≈ 15.6 µM) |
| CCOC(=O)C=C1CCN(c2ccc(N3C[C@H](CNC(C)=O)OC3=O)cc2F)CC1 [Compound 11, N-[[(5S)-3-[3-fluoro-4-(4-ethoxycarbonylmethylidene-piperidinyl)phenyl]-2-oxo-5-oxazolidinyl]methyl]acetamide] | 8 (≈ 19.1 µM) | 8 (≈ 19.1 µM) | 8 (≈ 19.1 µM) | 8 (≈ 19.1 µM) | 8 (≈ 19.1 µM) | 16 (≈ 38.1 µM) | 16 (≈ 38.1 µM) | 8 (≈ 19.1 µM) | 8 (≈ 19.1 µM) | 8 (≈ 19.1 µM) | 8 (≈ 19.1 µM) | 8 (≈ 19.1 µM) | 16 (≈ 38.1 µM) | 2 (≈ 4.77 µM) | 8 (≈ 19.1 µM) | 4 (≈ 9.54 µM) | 2 (≈ 4.77 µM) | 8 (≈ 19.1 µM) | 2 (≈ 4.77 µM) | 8 (≈ 19.1 µM) | Minimum inhibition concentration (MIC) (VRE C6488): 8 µg/mL (≈ 19.1 µM) |

Reference: patent US20040087633A1, “Methylidene oxazolidinone compound and preparation method thereof” (Korea Institute of Science and Technology, priority 2002, published 2004)
